Reference: ChEMBL document CHEMBL2046368, “New triterpenoid saponins from cacti and anti-type I allergy activity of saponins from cactus” (Bioorg Med Chem Lett, 2012)
pIC50: −log10 of the molar value.

These compounds were tested on RBL-2H3 (assay: Anti-type1 allergic activity in rat RBL2H3 cells using p-nitrophenyl-2-acdetamido-2-deoxy-beta-D-glucopyranoside as substrate assessed as inhibition of beta-hexosaminidase release at 200 uM incubated for 10 mins prior to substrate addition measured after 60 mins by spectrophotometry).
Type: functional

Row | Structure (SMILES) | inhibition at 200 µM
1 | C[C@@H]1O[C@@H](O[C@H]2[C@H](O[C@H]3[C@H](O[C@H]4CC[C@]5(C)[C@H]6CC=C7[C@@H]8CC(C)(C)C[C@H](O)[C@]89C[C@@H](OC9=O)[C@@]7(C)[C@]6(C)CC[C@H]5C4(C)C)O[C@H](C(=O)O)[C@@H](O)[C@@H]3O)O[C@H](CO)[C@@H](O)[C@@H]2O)[C@H](O)[C@H](O)[C@H]1O [DUMORTIERINOSIDE A] | 32.5%

These compounds were tested on RBL-2H3 (assay: Anti-type1 allergic activity in rat RBL2H3 cells using p-nitrophenyl-2-acdetamido-2-deoxy-beta-D-glucopyranoside as substrate assessed as inhibition of beta-hexosaminidase release at 100 uM incubated for 10 mins prior to substrate addition measured after 60 mins by spectrophotometry).
Type: functional

Row | Structure (SMILES) | inhibition at 100 µM
2 | COC(=O)[C@H]1O[C@@H](O[C@H]2CC[C@]3(C)[C@H]4CC=C5[C@@H]6CC(C)(C)C[C@H](O)[C@]67C[C@@H](OC7=O)[C@@]5(C)[C@]4(C)CC[C@H]3C2(C)C)[C@H](O[C@@H]2O[C@H](CO)[C@@H](O)[C@H](O)[C@H]2O[C@@H]2O[C@@H](C)[C@H](O)[C@@H](O)[C@H]2O)[C@@H](O)[C@@H]1O | 40.3%

The compounds below were run on RBL-2H3 (assay: Anti-type1 allergic activity in rat RBL2H3 cells using p-nitrophenyl-2-acdetamido-2-deoxy-beta-D-glucopyranoside as substrate assessed as inhibition of beta-hexosaminidase release incubated for 10 mins prior to substrate addition measured after 60 mins by spectrophotometry).
Type: functional, cell-based

Row | Structure (SMILES) | pIC50
3 | COC(=O)[C@H]1O[C@@H](O[C@H]2CC[C@]3(C)[C@H]4CC=C5[C@@H]6CC(C)(C)C[C@H](O)[C@]67C[C@@H](OC7=O)[C@@]5(C)[C@]4(C)CC[C@H]3C2(C)C)[C@H](O[C@@H]2O[C@H](CO)[C@@H](O)[C@H](O)[C@H]2O[C@@H]2O[C@@H](C)[C@H](O)[C@@H](O)[C@H]2O)[C@@H](O)[C@@H]1O | < 3.70
4 | C[C@@H]1O[C@@H](O[C@@H]2[C@@H](O)[C@H](O[C@H]3CC[C@]4(C)[C@H]5CC=C6[C@@H]7CC(C)(C)CC[C@]7(C(=O)O[C@@H]7O[C@H](CO)[C@@H](O)[C@H](O)[C@H]7O)CC[C@@]6(C)[C@]5(C)CC[C@H]4C3(C)C)O[C@H](C(=O)O)[C@H]2O)[C@H](O)[C@H](O)[C@H]1O | < 3.70
5 | C[C@@H]1O[C@@H](O[C@H]2[C@H](O[C@H]3[C@H](O[C@H]4CC[C@]5(C)[C@H]6CC=C7[C@@H]8CC(C)(C)C[C@H](O)[C@]89C[C@@H](OC9=O)[C@@]7(C)[C@]6(C)CC[C@H]5C4(C)C)O[C@H](C(=O)O)[C@@H](O)[C@@H]3O)O[C@H](CO)[C@@H](O)[C@@H]2O)[C@H](O)[C@H](O)[C@H]1O [DUMORTIERINOSIDE A] | < 3.70
6 | C=C(C)[C@@H]1CC[C@]2(C(=O)O[C@@H]3O[C@H](CO)[C@@H](O)[C@H](O)[C@H]3O)CC[C@]3(C)[C@H](CC[C@@H]4[C@@]5(C)CC[C@H](O[C@@H]6O[C@H](C(=O)O)[C@@H](O)[C@H](O[C@@H]7O[C@@H](C)[C@H](O)[C@@H](O)[C@H]7O)[C@H]6O[C@@H]6O[C@@H](C)[C@H](O)[C@@H](O)[C@H]6O)C(C)(C)[C@@H]5CC[C@]43C)[C@@H]12 [ERUCASAPONIN A] | < 3.70
7 | COC(=O)[C@H]1O[C@@H](O[C@H]2CC[C@]3(C)[C@H]4CC=C5[C@@H]6CC(C)(C)CC[C@]6(C=O)[C@@H](O)C[C@@]5(C)[C@]4(C)CC[C@H]3C2(C)C)[C@H](O[C@@H]2O[C@H](CO)[C@@H](O)[C@H](O)[C@H]2O)[C@@H](O[C@@H]2O[C@H](CO)[C@@H](O)[C@H](O)[C@H]2O)[C@@H]1O [GUMMOSOSIDE A METHYL ESTER] | 4.00
8 | CC1(C)CC[C@]2(C=O)[C@@H](O)C[C@]3(C)C(=CC[C@@H]4[C@@]5(C)CC[C@H](O[C@@H]6O[C@H](C(=O)O)[C@@H](O)[C@H](O[C@@H]7O[C@H](CO)[C@@H](O)[C@H](O)[C@H]7O)[C@H]6O[C@@H]6O[C@H](CO)[C@@H](O)[C@H](O)[C@H]6O)C(C)(C)[C@@H]5CC[C@]43C)[C@@H]2C1 [GUMMOSOSIDE A] | < 3.70
9 | C[C@@H]1O[C@@H](O[C@@H]2[C@@H](O)[C@@H](O)[C@H](O[C@H]3[C@H](O[C@H]4CC[C@]5(C)[C@H]6CC[C@@H]7[C@H]8[C@H](C(C)(C)O)[C@@H]9C[C@@]8(CC[C@@]7(C)[C@]6(C)CC[C@H]5C4(C)C)C(=O)O9)O[C@H](C(=O)O)[C@@H](O)[C@@H]3O)O[C@H]2C)[C@H](O)[C@H](O)[C@H]1O [STELLATOSIDE A] | < 3.70
10 | CC(C)(O)[C@H]1[C@@H]2[C@H]3CC[C@@H]4[C@@]5(C)CC[C@H](O[C@@H]6O[C@H](C(=O)O)[C@@H](O)[C@H](O)[C@H]6O[C@@H]6O[C@H](CO)[C@@H](O)[C@H](O)[C@H]6O[C@@H]6OC[C@@H](O)[C@H](O)[C@H]6O)C(C)(C)[C@@H]5CC[C@@]4(C)[C@]3(C)CC[C@@]23C[C@@H]1OC3=O [STELLATOSIDE B] | < 3.70
11 | C[C@@H]1O[C@@H](O[C@H]2[C@H](O[C@H]3CC[C@]4(C)[C@H]5CC[C@@H]6[C@H]7[C@H](C(C)(C)O)[C@@H]8C[C@@]7(CC[C@@]6(C)[C@]5(C)CC[C@H]4C3(C)C)C(=O)O8)O[C@H](C(=O)O)[C@@H](O)[C@@H]2O[C@@H]2O[C@@H](C)[C@H](O)[C@@H](O)[C@H]2O)[C@H](O)[C@H](O)[C@H]1O [STELLATOSIDE C] | < 3.70
12 | C=C(C)[C@H]1[C@@H]2[C@H]3CC[C@@H]4[C@@]5(C)CC[C@H](O[C@@H]6O[C@H](C(=O)O)[C@@H](O)[C@H](O[C@@H]7O[C@@H](C)[C@H](O)[C@@H](O)[C@H]7O)[C@H]6O[C@@H]6O[C@@H](C)[C@H](O)[C@@H](O)[C@H]6O)C(C)(C)[C@@H]5CC[C@@]4(C)[C@]3(C)CC[C@@]23C[C@@H]1OC3=O [THURBEROSIDE A] | 3.78

Continued, values first:

Row | pIC50 | Structure (SMILES)
13 | < 3.70 | C[C@@H]1O[C@@H](O[C@H]2[C@H](O[C@H]3[C@H](O[C@H]4CC[C@]5(C)[C@H]6CC=C7[C@@H]8C[C@@](C)(CO)[C@@H](O)C[C@]89C[C@@H](OC9=O)[C@@]7(C)[C@]6(C)CC[C@H]5C4(C)C)O[C@H](C(=O)O)[C@@H](O)[C@@H]3O)O[C@H](CO)[C@@H](O)[C@@H]2O)[C@H](O)[C@H](O)[C@H]1O [BRIDGESIDE A1]
14 | < 3.70 | CC(=O)OC[C@]1(C)C[C@H]2C3=CC[C@@H]4[C@@]5(C)CC[C@H](O[C@@H]6O[C@H](C(=O)O)[C@@H](O)[C@H](O)[C@H]6O[C@@H]6O[C@H](CO)[C@@H](O)[C@H](O)[C@H]6O[C@@H]6OC[C@@H](O)[C@H](O)[C@H]6O)C(C)(C)[C@@H]5CC[C@@]4(C)[C@]3(C)[C@H]3C[C@]2(C[C@@H]1O)C(=O)O3 [BRIDGESIDE D1]
15 | < 3.70 | CC(=O)OC[C@]1(C)C[C@H]2C3=CC[C@@H]4[C@@]5(C)CC[C@H](O[C@@H]6O[C@H](C(=O)O)[C@@H](O)[C@H](O)[C@H]6O[C@@H]6O[C@H](CO)[C@@H](O)[C@H](O)[C@H]6O[C@@H]6O[C@@H](C)[C@H](O)[C@@H](O)[C@H]6O)C(C)(C)[C@@H]5CC[C@@]4(C)[C@]3(C)[C@H]3C[C@]2(C[C@@H]1O)C(=O)O3 [BRIDGESIDE D2]
16 | < 3.70 | C[C@H]1C[C@]23C(=O)O[C@@]14C(=CC[C@@H]1[C@@]5(C)CC[C@H](O[C@@H]6O[C@H](C(=O)O)[C@@H](O)[C@H](O[C@@H]7OC[C@@H](O)[C@H](O)[C@H]7O)[C@H]6O[C@@H]6O[C@H](CO)[C@@H](O)[C@H](O)[C@H]6O)C(C)(C)[C@@H]5CC[C@]14C)[C@@H]2CC(C)(C)C[C@@H]3O[C@@H]1O[C@H](C(=O)O)[C@@H](O)[C@H](O)[C@H]1O [PACHANOSIDE D1]
17 | < 3.70 | CC(=O)O[C@H]1CC(C)(C)C[C@H]2C3=CC[C@@H]4[C@@]5(C)CC[C@H](O[C@@H]6O[C@H](C(=O)O)[C@@H](O)[C@H](O[C@@H]7OC[C@@H](O)[C@H](O)[C@H]7O)[C@H]6O[C@@H]6O[C@H](CO)[C@@H](O)[C@H](O)[C@H]6O)C(C)(C)[C@@H]5CC[C@@]4(C)[C@]34OC(=O)[C@]12C[C@@H]4C [PACHANOSIDE I1]
